Source: patent US11358940B2, “K-Ras modulators” (THE REGENTS OF THE UNIVERSITY OF CALIFORNIA, priority 2017, dated 2022)

Legend:
[1] = test system: KRAS4b G12D, KRAS4b G12V, HRas WT/P53-, and SUIT-2; assay: Cell proliferation experiments with analogues of FNL-0045; format: cell-based; settings: FIG. 15B
Experimental: (§1) Cell viability in the presence of compounds (discussed in examples above) was measured using CellTiter-Glo (Promega). Cells were plated in black-walled 384-well plates (Greiner, 781091) at densities in accordance with their doubling time (for MEFs typically 1,000 cells/well in 20 μl), using the Multidrop Combi Reagent Dispenser (Thermo). They were then incubated overnight at 37° C. in a humidified atmosphere of 5% CO2 prior to compound addition.
Compound and dimethylsulfoxide (DMSO) addition to microplates was performed using the Access Laboratory Workstation (Labcyte) and Echo 555 (Labcyte) liquid handler. Source plates with compounds and DMSO were prepared and the Echo 555 was used to transfer 50 nL of compound, DMSO, or both to the appropriate wells. […] of complete culture medium was added to all wells of the microplate after compound addition. […]
Cells were incubated with compounds for 72 h. […] Cellular ATP levels (an indicator of cell count) were determined with CellTiter-Glo (CTG, Promega G7573) luminescence assay, using an EnVision Plate Reader (PerkinElmer).
Plates were harvested at two time points. […] After 72 h incubation, the compound treated plates were harvested using CTG reagent and luminescence read using the EnVision giving control growth (C) and compound treated well (T72) measurements. Growth inhibition was calculated by: […]

[2] = test system: HupT4 pancreas carcinoma cells; assay: Growth arrest in HupT4 cells; format: cell-based; settings: 24 h
Experimental: as §1
Compound and dimethylsulfoxide (DMSO) addition to microplates was performed using the Access Laboratory Workstation (Labcyte) and Echo 555 (Labcyte) liquid handler. Source plates with compounds and DMSO were prepared and the Echo 555 was used to transfer 50 nL of compound, DMSO, or both to the appropriate wells. […] of complete culture medium was added to all wells of the microplate after compound addition. The highest final concentration in each assay was 100 μM or 50 μM with between seven to 12 dilutions. The final DMSO concentration in all wells was 0.2%.
[…] All conditions were done in triplicates and experiments performed at least thrice. Cellular ATP levels (an indicator of cell count) were determined with CellTiter-Glo (CTG, Promega G7573) luminescence assay, using an EnVision Plate Reader (PerkinElmer).
Plates were harvested at two time points. […] Growth inhibition was calculated by: […]

[3] = target: farnesylated and carboxymethylated KRas (FMe-KRas) (Homo sapiens, UniProt P01116); assay: MALDI-TOF analysis of labeling of fully processed KRas; format: binding
KRas H95C (1-169) = target: T1, KRas H95C (1-169) (Homo sapiens, UniProt P01116, H95C); assay: MALDI-TOF analysis of KRas H95C reacted with compound; format: binding; settings: reacted for 24 h
T1 construct: we generated Kras4b H95C (1-169) mutant protein; made in house
From the text: Next, we reacted all three epoxides synthesized (structures depicted in FIG. 10A) with KRas H95C (1-169) to investigate reactivity at that site.
Single enantiomers of FNL-0012, compounds […] and FNL-0044 (R), then corresponding single enantiomers of FNL-0030, compounds FNL-0043 (S) and FNL-0045 (R), were synthesized (FIG. 14A). These enantiomers were investigated using a MALDI-TOF MS screen using KRAS4b (1-169) H95C, and also cell-based assays.

[4] = target: T2, Kras4b H95C (1-169) mutant protein (GppNHp-loaded) (Homo sapiens, UniProt P01116, H95C); assay: Disulfide tethering screen, dose response; format: binding; settings: FIG. 2
T2 construct: we generated Kras4b H95C (1-169) mutant protein; made in house
From the text: Disulfide tethering is a site-directed fragment-based approach to drug-discovery, which allows the screening low-affinity disulfide containing fragments against a native or introduced cysteine residue of a target protein. Fragment binding is reversible, and can be tuned to favor detection of only the strongest bound fragments through the use of increasing concentrations of a reductant (typically β-mecaptoethanol). This binding is not purely driven by reactivity; it is influenced by protein/ligand interactions and is independent of pKa or surface exposure. Bound fragments are detected by mass spectrometry and provide a lead into the drug discovery process.
To target H95 specifically, we generated Kras4b H95C (1-169) mutant protein, and used it (GppNHp-loaded), to search for compounds that could bind to active KRas in close proximity to H95. We performed a tethering screen of a disulfide containing fragment library at the University of California San Francisco.

H95 site of KRas = H95 site of KRas (Homo sapiens, UniProt P01116, H95C); assay: Thermal melting analysis; format: binding; settings: FIG. 3
[5] = target: T3, GDP loaded KRAS4b(1-169) H95C/C118S mutant (Homo sapiens, UniProt P01116, C118S/H95C); assay: MALDI-TOF percentage labeling of C95, GDP-loaded protein; format: binding; settings: for level of covalent labeling to C95 (percent of labeling), GDP, 3 h: 3 h incubation; for level of covalent labeling to C95 (percent of labeling), GDP, 6 h: 6 h incubation; for level of covalent labeling to C95 (percent of labeling), GDP, 24 h: 24 h incubation
T3 construct: loaded KRAS4b(1-169) H95C/C118S mutant
Experimental: (§2) Table 1 is a table summarizing levels of covalent labeling to C95 as analyzed by MALDI-TOF MS for a series of synthesized compounds. […] Both species, GDP or nonhydrolyzable analogue of GTP—GppNHp-loaded KRAS4b H95C/C118S, were then reacted with a panel of epoxides and analyzed by MALDI-TOF MS to assess level of covalent modification to C95 after 3 h, 6 h, or 24 h of incubation with the protein. All R isomers show enhanced activity compared to S isomers.
(§3) Example 18: Percentage Labeling Determination for Compounds Targeting KRAS4b Residue 95 by Matrix Assisted Laser Desorption Ionization-Time of Flight Mass Spectrometry (MALDI-TOF)
(§4) The assay uses four tool proteins: • Guanosine diphosphate (GDP) loaded KRAS4b(1-169) H95C/C118S mutant • 5′-Guanylyl imidodiphosphate (GppNHp) loaded KRAS4b(1-169) H95C/C118S mutant • GDP loaded KRAS4b(1-169) C118S mutant • GppNHp loaded KRAS4b(1-169) C118S mutant
(§5) 20 μM Solution of protein in 20 mM HEPES, 150 mM NaCl, 1 mM MgCl2, pH 7.3 buffer was prepared freshly before assay. 20 μl Aliquots of protein were dispensed on 384 well polypropylene plate, then tested compounds (0.8 μl, 10 mM in DMSO) were added to appropriate wells. For each reaction/assay three blank and three control samples were prepared by mixing 20 μl of protein solution with 0.8 μl DMSO or 10 mM standards (compounds 994566 and FB9). The wells content was carefully mixed by aspiration, then plate was sealed by adhesive cover, centrifuged at 2000 g for 1 minute and kept in dark at room temperature for 3, 6 (or 8) and 24 h.
(§6) Before each assay MALDI target (Bruker MPT 384 ground steel BC) was pre-treated by pipetting on each spot 1 μl of saturated sinapinic acid in acetonitrile (ACN).
(§7) After 24 h reaction, 2 μl of reaction mixtures were pipetted out into 20 μl MALDI matrix solution (saturated solution of sinapinic acid in 1:1 ACN:water solution containing 0.75% trifluoroacetic acid (TFA)) deposited on 384 well polypropylene plate. Resulting solution was mixed by aspiration, centrifuged at 2000 g for 1 minute, then 2 μl aliquots were dispensed on pre-treated MALDI target using Beckman Coulter Biomek FX^P 96/Span-8 Laboratory Automation Workstation. Finally, the MALDI target was dried under mild vacuum to produce spots with fine crystalline structure.
MALDI-TOF measurements were performed on Bruker Daltonics ultraflex III TOF-TOF mass spectrometer using linear mode and mass range from 5 to 45 kDa. Detector gain was set to ×9 (1734 V), sample rate to 1 GS/s, smart beam parameter set: 3_medium was used, and the laser frequency was 66.7 Hz. Spectra were automatically collected using custom AutoXecute method. Laser power was auto-adjusted using fuzzy control. The peak selection range was set to be between 19000 and 20200 Da. Peak evaluation uses half width parameter set to be smaller than 30 Da. Fuzzy control used Proteins/Oligonucleotides protocol with minimum half width ⅙ times above threshold. Up to 1500 shots were collected in 500 shot steps. Dynamic termination was implemented to finish data collection when peak intensity was reaching value of 1200 [a.u.].
Spectra were smoothed by SavitzkyGolay algorithm using 5 m/z width and three cycles. Centroid peak detection algorithm was used with signal to noise threshold set to 4, relative intensity threshold 2%, minimum intensity threshold 20 [a.u.], peak width 10 m/z and TopHat baseline subtraction. Peak intensity and area under the peak were evaluated and recorded for all peaks between 19248 Da and 20500 Da for H95/C118 mutant and 19285 Da and 20500 Da for C118 mutant respectively.
Percent of labeling was calculated using followed equation:
[formula] Similar results were obtained when peak area instead of peak height was used for calculations, however peak height method produced more reliable data in case of poor quality spectra.

[6] = target: T4, GppNHp loaded KRAS4b(1-169) H95C/C118S mutant (Homo sapiens, UniProt P01116, C118S/H95C); assay: MALDI-TOF percentage labeling of C95, GppNHp-loaded protein; format: binding; settings: for level of covalent labeling to C95 (percent of labeling), GppNHp, 3 h: 3 h incubation; for level of covalent labeling to C95 (percent of labeling), GppNHp, 6 h: 6 h incubation; for level of covalent labeling to C95 (percent of labeling), GppNHp, 24 h: 24 h incubation
T4 construct: loaded KRAS4b(1-169) H95C/C118S mutant
Experimental: as §2
150 to 300 μM solution of GDP loaded protein in KRAS buffer was prepared (20 mM HEPES, 150 mM NaCl, 1 mM MgCl2, 0.05 mM TCEP, pH 7.3). To this was added vigorously 1500×molar excess of 1 M ammonium sulfate in KRAS buffer, and the combination mixed gently by inverting tube. Next was prepared 250 mM solution of GppNHp (150 molar excess of GppNHp to protein; keep it on ice). To the protein was pipetted 10% of prepared GppNHp solution, then suspension of alkaline phosphatase from calf intestine on agarose was added (Sigma-Aldrich, P0726) to have 2 units of enzyme per each mg of protein. The reaction mixture was incubated at room temperature, rotating end-over for 1 h 30 min. The alkaline phosphatase was removed on agarose beads by filtering solution to a new vial using Millex-GP syringe filter. Remaining solution of GppNHp was added and incubated for additional 45 min. At the end of the exchange the protein was filtered again, placed on ice, and purified on NGC medium-pressure chromatography system (Bio-Rad). Five in-lane connected desalting columns (5×GE Healthcare HiTrap Desalting columns 5 ml, 17-1408-01) were used with isocratic elution of KRAS buffer at 4 ml/min. The protein elution was monitored at 280 nm. The concentration of final protein was evaluated by NanoDrop 2000 spectrophotometer (Thermo Fisher) using molar attenuation coefficient ε=19685 l·mol^−1·cm^−1. The quality of the protein was confirmed by MALDI and the exchange rate was assessed by HPLC based assay.
as §3, §4, §5, §6, §7
MALDI-TOF measurements were performed on Bruker Daltonics ultraflex III TOF-TOF mass spectrometer using linear mode and mass range from 5 to 45 kDa. […]

Compound	binding at H95 site of KRas in dose response experiments [4]	shift in Tm upon fragment binding (H95 site of KRas)	level of covalent labeling to C95 (percent of labeling), GDP, 3 h [5]	level of covalent labeling to C95 (percent of labeling), GDP, 6 h [5]	level of covalent labeling to C95 (percent of labeling), GDP, 24 h [5]	level of covalent labeling to C95 (percent of labeling), GppNHp, 3 h [6]	level of covalent labeling to C95 (percent of labeling), GppNHp, 6 h [6]	level of covalent labeling to C95 (percent of labeling), GppNHp, 24 h [6]	other results
Cn1nc(C(=O)NCc2cn(C[C@@H]3CO3)nn2)c2ccccc21 [FNL-0088]	–	–	–	–	–	–	–	–	proliferation assay, R enantiomer compared with S enantiomer FNL-0090 [1]: compared favorably
O=C(Cc1ccc(Cl)c(Cl)c1)NCC1CO1 (stereo not shown) [FNL-0010]	–	–	–	–	–	–	–	–	growth arrest / cell proliferation [2]: did not affect cell proliferation; covalent labeling of FMe-KRas [3]: did not label; covalent modification of C95 (KRas H95C (1-169)): covalently labeled C95
CN(C)CCSSCCn1cc(CNC(=O)c2n[nH]c3ccccc23)nn1 [compound 966854]	strong binders	significant shifts in Tm	–	–	–	–	–	–	–
Cc1ccc(S(=O)(=O)c2cn(CCSSCCN(C)C)nn2)cc1 [compound 966844]	strong binders	significant shifts in Tm	–	–	–	–	–	–	–
Cn1nc(C(=O)NCc2cn(C[C@H]3CO3)nn2)c2cc(Br)ccc21	–	–	3%	10%	49%	0%	2%	10%	–
COc1ccc(Cl)cc1C(=O)N1CCCC(C(=O)N[C@@H](CC(C)C)C(=O)[C@@]2(C)CO2)C1 (stereo partly shown)	–	–	0%	0%	0%	0%	0%	0%	–

More lines, main results first:

binding at H95 site of KRas in dose response experiments [4]	shift in Tm upon fragment binding (H95 site of KRas)	level of covalent labeling to C95 (percent of labeling), GDP, 3 h [5]	level of covalent labeling to C95 (percent of labeling), GDP, 6 h [5]	level of covalent labeling to C95 (percent of labeling), GDP, 24 h [5]	level of covalent labeling to C95 (percent of labeling), GppNHp, 3 h [6]	level of covalent labeling to C95 (percent of labeling), GppNHp, 6 h [6]	level of covalent labeling to C95 (percent of labeling), GppNHp, 24 h [6]	Compound	other results
strong binders	significant shifts in Tm	–	–	–	–	–	–	CN(C)CCSSCCNC(=O)Cc1ccc(Cl)c(Cl)c1 [compound 917105]	–
–	–	87%	91%	89%	76%	81%	78%	COc1ccc(Cl)cc1C(=O)N[C@H]1COC1=O	–
–	–	7%	18%	72%	2%	4%	25%	O=C(NCc1cn(C[C@@H]2CO2)nn1)c1c[nH]c2ccccc12	–
